The values below come from US20240225978A1, “METHODS AND COMPOSITIONS FOR PHARMACOLOGICAL TREATMENT OF BLEPHAROPTOSIS” (priority 2021, published 2024).

Series [1] concerns cosmetic blepharoptosis. The series can be described thus: Case study of cosmetic blepharoptosis treatment with naphazoline 0.1%. It counts as in vivo, human. As to the method: They also had brow asymmetry due to compensatory right eyebrow elevation, a separate cosmetic concern. One drop of an ophthalmic solution containing naphazoline 0.1% was administered to the right eye. After 30 minutes, the eyelid was over-elevated with an MRD-1 of 5.5 mm due to continued compensatory brow elevation of the subject's right eyebrow (FIG. 5b). […] Three hours after drop administration, the eyelid and brow symmetry were maintained (FIG. 5d).

Series [2] deals with functional blepharoptosis. The series can be described thus: Randomized, double-blinded, controlled study of blepharoptosis treatment with naphazoline 0.1% ophthalmic solution. It counts as in vivo, human. How it is done:
To evaluate the effects of an ophthalmic solution containing an α adrenergic agonist on blepharoptosis, a randomized, double-blinded, controlled study was conducted using naphazoline 0.1%. Participants with either unilateral or bilateral upper eyelid blepharoptosis were randomized to receive either control eye drops (control group) or an ophthalmic solution containing active ingredient naphazoline 0.1% (treatment group).
The composition of the treatment group included naphazoline hydrochloride (concentration 0.1% w/v), sodium chloride, boric acid, calcium chloride, magnesium chloride, potassium chloride, sodium borate, PURITE®, methylcellulose, and purified water. The ophthalmic drops of the control group were composed of all of the preceding compounds except for naphazoline hydrochloride.
Baseline external photographs of all participants were obtained before eye drop administration. Visual field and contrast sensitivity testing were also tested at baseline. Visual field testing was conducted using an OCULUS Easyfield® perimeter. Contrast sensitivity was tested using a Pelli-Robson Contrast Sensitivity Chart (Pelli D G, Robson J, Wilkins A J. The design of a new letter chart for measuring contrast sensitivity. Clin Vision Sci. 1988; 2187-99). After one eye drop was administered to one or both eyes depending on the presence of unilateral or bilateral blepharoptosis, a second photo was obtained 30 minutes later. After 60 minutes, visual field and contrast sensitivity tests were repeated. After 120 minutes, a third and final photo was obtained.
MRD-1 is the distance in millimeters from the upper eyelid margin to the light reflex within the pupil. Measurements were made using Image J software (US National Institutes of Health, Bethesda, MD, U.S.A., http://imagej.nih.gov/ij) by a single designated, blinded investigator. The pupil diameter was also measured at all time points. Secondary effects were recorded and included subject-reported eye irritation, pain, blurry vision, light sensitivity, as well as examiner-noted eye injection, eyelid retraction, and pupil diameter. MRD-1 at the two post-administration time points constituted the primary endpoint. Secondary endpoints included visual field assessment and contrast sensitivity testing.

Series [3] deals with cosmetic blepharoptosis. The series can be described thus: Controlled study of topical naphazoline 0.1% to improve cosmetic blepharoptosis. It counts as in vivo, human. How it is done: A comparative study was conducted to investigate the effect of an ophthalmic solution containing naphazoline 0.1% on cosmetic blepharoptosis. Two groups, the control group and treatment group each consisting of 5 subjects, were matched in terms of age and gender. The control group received one drop of normal saline while the treatment group received one drop of an ophthalmic solution containing naphazoline 0.1%. At both 30 minutes and 120 minutes after drop administration, external photographs were obtained and analyzed using Image J imaging software. MRD-1 and the distance between the upper and lower eyelid margins were measured to quantitatively assess cosmetic blepharoptosis. Secondary effects were also recorded, including conjunctival injection, eye pain or irritation, light sensitivity, and pupil size.

Series [4] relates to functional blepharoptosis. The series can be described thus: Randomized, controlled study of blepharoptosis treatment with tetrahydrozoline 0.1% ophthalmic solution. Type of series: in vivo, human. How it is done: To evaluate the effects of an ophthalmic solution containing an α adrenergic agonist (tetrahydrozoline) on blepharoptosis, a randomized, controlled study was conducted. Participants with both unilateral or bilateral blepharoptosis were randomized to receive either the control eye drop or an ophthalmic solution containing active ingredient tetrahydrozoline 0.1%. Subjects and drop administrators were blinded to the intervention. […] The composition of the treatment group included tetrahydrozoline hydrochloride (concentration 0.1% w/v), sodium chloride, boric acid, calcium chloride, magnesium chloride, potassium chloride, sodium borate, PURITE®, methylcellulose, and purified water. The ophthalmic drops of the control group were composed of all of the preceding compounds except for tetrahydrozoline hydrochloride. Baseline external photographs of all participants were obtained before eye drop administration. After one eye drop was administered, a second photo was obtained 30 minutes later. After 90 minutes, a third and final photo was obtained. The pupil diameter in millimeters was also measured in photos at all time points. Measurements were made using Image J software by a single designated, blinded investigator. Secondary effects from the intervention were recorded including subject-reported eye irritation, pain, blurry vision, light sensitivity, as well as examiner-noted eye injection, eyelid retraction, and pupil size change from baseline.

The subject of series [5] is α adrenergic receptors within Müller's muscle. To be noted: ophthalmic use for pupil dilation; background statement; cited from earlier work.

Where a name gives a salt, the structure may show the parent alone.

Consider `c1ccc2c(CC3=NCCN3)cccc2c1` [Naphazoline, naphazoline hydrochloride], for which the “eyelid and brow symmetry after brow relaxation” value in series [1] (one drop 0.1%, FIG. 5c (120 minutes)) is “achieved both eyelid and brow symmetry”. In series [1] (one drop 0.1%, three hours), the “eyelid and brow symmetry three hours after drop administration” value is “maintained”. Moreover, the “MRD-1 of the right eye” value in series [1] (subject, one drop 0.1% ophthalmic solution to the right eye, after 30 minutes, baseline 2.5 mm, eyelid over-elevated due to compensatory brow elevation) is given as 5.5 mm. For the same compound, the “difference in proportion of individuals who reported minor side effects, treatment vs control group” value in series [2] (0.1% ophthalmic solution) is recorded as “not statistically significant”. Moreover, the “visual field and contrast sensitivity improvement compared to the control group” value in series [2] (0.1% ophthalmic solution, 60 minutes after drop) is “greater”. Moreover, in series [2] (0.1% ophthalmic solution, at 30 minutes and 120 minutes), the “improvement in MRD-1 compared to the control group” value is recorded as “statistically significant improvement”. Moreover, the “Contrast Sensitivity Δ (mean)” value in series [2] (Pelli-Robson chart, 60 minutes after one drop 0.1%, baseline 1.29, control 0.03, P 0.03) is reported as 0.69. In series [2] (one drop of 0.1% w/v ophthalmic solution, 19 subjects, baseline MRD1 0.93 mm, 30 minutes after drop, control 0.02, P <0.001), the “MRD1 Δ 30 minutes (mean, mm)” value is 2.15 mm. Also, the “MRD1 Δ 120 minutes (mean, mm)” value in series [2] (one drop of 0.1% w/v ophthalmic solution, 19 subjects, 120 minutes after drop, control 0.01, P 0.009) is reported as 2.08 mm. For the same compound, the “overall effect on eyelids, visual field, contrast sensitivity and cosmetic appearance” value in series [2] (one drop of ophthalmic composition 0.1% administered twice daily (as summarised in b67 for Example 1)) is “resulted in eyelid elevation, improvement of a superior visual field defect, increased contrast sensitivity, and improved cosmetic appearance of the eyes, eyelids, and eyebrows”. Further, in series [2] (proportion of subjects, one drop 0.1%, control 9.5, P 0.17), the “Secondary Effects (%)” value came to 10.5%. For the same compound, the “VF Δ (mean, % correct)” value in series [2] (visual field, OCULUS Easyfield perimeter, 60 minutes after one drop 0.1%, baseline 33.8, control 2.1, P <0.001) is reported as 56.6 % correct. Also, in series [3] (0.1% ophthalmic solution), the “difference in secondary effects, including pupil size, between the two groups” value is “no difference”. Also, the “improvement in MRD-1 and eyelid separation compared to the control group” value in series [3] (0.1% ophthalmic solution, 30 and 120 minutes) was “statistically significant improvement”. In addition, the “MRD1 Δ 30 minutes (mean, %)” value in series [3] (one drop 0.1% ophthalmic solution, 5 subjects, baseline MRD1 2.4 mm, control (normal saline) 3.8, P 0.01) amounted to 42%. Further, the “MRD1 Δ 120 minutes (mean, %)” value in series [3] (one drop 0.1% ophthalmic solution, 5 subjects, control 1.9, P 0.02) was found to be 38%. Moreover, the “Eyelid Margin Distance Δ 120 minutes (mean, mm)” value in series [3] (one drop 0.1%, control 0.02, P 0.03) was found to be 1.33 mm. For the same compound, the “Pupil Size Δ 30 minutes (mean, %)” value in series [3] (one drop 0.1%, control 6.7, P 0.37) came to 10%. Besides, the “Minor Side Effects (%)” value in series [3] (one drop 0.1%, control 20, P 0.49) worked out at 20%. For the same compound, in series [3] (one drop 0.1%, distance between upper and lower eyelid margins, control 0.03, P 0.009), the “Eyelid Margin Distance Δ 30 minutes (mean, mm)” value turned out to be 1.45 mm.
`c1ccc2c(c1)CCCC2C1=NCCN1` (centres unmarked) [Tetrahydrozoline, tetrahydrozoline hydrochloride]: in series [4] (0.1% ophthalmic solution), the “difference in proportion of individuals who reported minor side effects, treatment vs control group” value was “not statistically significant” and the “pupillary size change compared to the control” value is reported as “greater in the treatment group compared to the control, however, this change was not statistically significant”. Also, the “blepharoptosis improvement compared to the control group” value in series [4] (0.1% ophthalmic solution, both time points) is reported as “statistically significant at both time points”. Further, in series [4] (one drop 0.1%, control 2.1, P 0.07), the “Minor Side Effects (%)” value is listed as 6.7%. Also, the “Pupil Size Δ 30 minutes (mean, %)” value in series [4] (one drop 0.1%, control 5.8, P 0.09) is recorded as 9.3%. Also, the “MRD1 Δ 30 minutes (mean, mm)” value in series [4] (one drop of 0.1% w/v ophthalmic solution, 11 subjects, baseline MRD1 0.85 mm, control 0.04, P 0.01) was found to be 2.01 mm. Also, in series [4] (one drop of 0.1% w/v ophthalmic solution, 11 subjects, control 0.02, P 0.009), the “MRD1 Δ 120 minutes (mean, mm)” value is 1.97 mm.
Turning to `CNC[C@H](O)c1cccc(O)c1` [phenylephrine], in series [5], the “duration of pupillary dilation and disabling light sensitivity” value was “up to seven hours”; the “duration of the effect of eyelid elevation” value is “less than ten minutes”.
